The values that follow come from patent US9416103B2, “Use of the aminoalkylindole JWH-073-M4 and related compounds as neutral CB1 receptor antagonists for the treatment of alcoholism, drug abuse, obesity, and obesity-related diseases” (The Board of Trustees of the University of Arkansas, priority 2012, dated 2016).

Series [1] has as its target T1, CB1Rs (Mus musculus (Mouse), UniProt P47746). Nature of the series: Competition receptor binding with [3H]CP-55,940 in mouse brain homogenates. On the procedure:
(§1) Mouse brain homogenates for in vitro assays were prepared as previously described. Briefly, whole brains were harvested from B6SJL mice, snap-frozen in liquid nitrogen and stored at −80° C. On the day membrane homogenates were to be prepared, brains were thawed on ice, then pooled in a 40 mL Dounce glass homogenizer and suspended in 5 volumes of ice cold homogenization buffer (50 mM HEPES, pH 7.4, 3 mM MgCl2, and 1 mM EGTA). Brains were then subjected to 10 complete strokes with an A pestle, followed by centrifugation at 40,000×g for 10 minutes at +4° C. Resulting supernatants were discarded, and the pellet was resuspended, homogenized and centrifuged similarly twice more, with supernatants being discarded. For the final resuspension and homogenization with a B pestle, ice-cold 50 mM HEPES was used in place of homogenization buffer, and homogenates were aliquoted and stored at −80° C. Protein concentrations of homogenates were determined using the BCA™ Protein Assay (Thermo Scientific, Rockford, Ill.).
(§2) Competition receptor binding was performed as previously described. […] Reactions were terminated by rapid vacuum filtration through Whatman GF/B glass fiber filters, followed by five washes with ice-cold buffer (50 mM Tris, 0.05% BSA). Filters were immediately placed into 7 mL scintillation vials to which 4 mL of ScintiVerse™ BD Cocktail scintillation fluid (Fisher Scientific, Fair Lawn, N.J.) was added. Bound radioactivity was determined after overnight incubation at room temperature and shaking, by liquid scintillation spectrophotometry with an efficiency of 44% (Tri Carb 2100 TR Liquid Scintillation Analyzer, Packard Instrument Company, Meriden, Conn.). Specific binding is expressed as total binding minus non-specific binding, and is graphed for each data point as a percentage of specific binding occurring in the absence of any competitor.
(§3) Curve fitting and statistical analyses for in vitro experiments were performed using GraphPad Prism™ version 5.0b (GraphPad Software Inc., San Diego, Calif.). The Cheng-Prusoff equation [45] was used to convert the experimental IC50 values obtained from competition receptor binding experiments to Ki values, a quantitative measure of receptor affinity. Non-linear regression for one-site competition was used to determine the IC50 for competition receptor binding. Curve fitting of concentration-effect curves via non-linear regression was also employed to determine the EC50 (a measure of potency) and Emax (a measure of efficacy) for [^35S]GTPγS concentration-effects experiments. […] Data are expressed as mean±SEM. The Student's t-test was used to determine statistical significance (P<0.05) between two groups, while a one-way ANOVA, followed by Tukey's Multiple Comparison post-hoc test, was used to determine statistical significance (P<0.05) between three or more groups.
(§4) The prepared analogues were subjected to in vitro pharmacological testing, which included receptor binding and functional assays at both cannabinoid receptors. Initial receptor binding screens at both CB1Rs and CB2Rs were conducted for the analogues prepared.

The target of series [2] is T1, CB1Rs. The series is described as follows: [35S]GTPγS binding assay (G-protein activation) in mouse brain homogenates. In kind it is biochemical. The settings on record: for [35S]GTPγS Binding, +O-2050 (1 μM): 1 μM cannabinoid (100 nM for CP-55,940) co-incubated with CB1R antagonist O-2050 1 μM; for [35S]GTPγS Binding, 10 μM: receptor-saturating concentration 10 μM. On the procedure: as §1
[^35S]GTPγS binding was performed as previously described. Briefly, 25 μg of mouse brain homogenates were incubated for 30 minutes at 30° C. with 0.1 nM [^35S]GTPγS, 10 μM GDP, and either cannabinoid+/−antagonist, 10 μM unlabeled GTPγS (non-specific binding) or vehicle (total binding), in triplicate, in a volume of 1 mL of buffer containing 20 mM HEPES, 10 mM MgCl2, 100 mM NaCl, 20 units/L adenosine deaminase, 0.05% BSA and the appropriate DMSO (0.1%) and/or ethanol (<0.2%) vehicle. Assay buffer containing 100 mM KCl, instead of 100 mM NaCl, was used to increase basal G-protein activity in experiments examining inverse agonism. Reactions were terminated by quick vacuum filtration through Whatman GF/B glass fiber filters, followed by five washes with ice-cold buffer (20 mM HEPES, 0.05% BSA). Filters were immediately placed into 7 mL scintillation vials to which 4 mL of ScintiVerse™ BD Cocktail scintillation fluid was added. Bound radioactivity was determined after overnight incubation at room temperature and shaking by liquid scintillation spectrophotometry with an efficiency of 93% (Tri Carb 2100 TR Liquid Scintillation Analyzer, Packard Instrument Company, Meriden, Conn.). Specific binding is expressed as picomoles of [^35S]GTPγS bound per mg of protein.
as §3

Series [3] deals with NIH Swiss mice. The series is described as follows: Core body temperature by biotelemetry (cannabinoid tetrad, hypothermia). It is filed as in vivo, mouse. The settings on record: i.p. The method, then: Prior to surgery (see below), male NIH Swiss mice (Harlan Sprague Dawley Inc., Indianapolis, Ind.), weighing approximately 25-30 g, were housed 3 animals per Plexiglas® cage (15.24×25.40×12.70 cm) in a temperature-controlled room in an Association for Assessment and Accreditation of Laboratory Animal Care (AAALAC) accredited animal facility at the University of Arkansas for Medical Sciences. Room conditions were maintained at 22±2° C. and 45-50% humidity. Lights were set to a 12-h light/dark cycle. Animals were fed Lab Diet rodent chow (Laboratory Rodent Diet #5001, PMI Feeds, Inc., St. Louis, Mo.) and water ad libitum throughout testing Animals were acclimated to the laboratory environment for ˜7 days prior to experiments, and to the biotelemetry chambers for at least 2 hours prior to initiation of data acquisition. All test conditions used groups of 5 or 6 mice, and all mice were drug-naïve (with the exception of surgical anesthetics) prior to testing.
Cannabinoid effects on core temperature and locomotor activity were measured using surgically-implanted biotelemetry probes. Following appropriate anesthetization with ketamine (100 mg/kg, intraperitoneal [i.p.]) and xylazine (10 mg/kg, i.p.), the abdominal area of each mouse was shaved and sanitized with iodine swabs. A rostral-caudal cut approximately 1.5 cm in length was made with skin scissors, providing access to the intraperitoneal cavity. A cylindrical glass-encapsulated radiotelemetry probe (model ER-4000 E-Mitter, Mini Mitter Co., Inc., Bend, Oreg.) was then inserted, and the incision was closed using absorbable 5-0 chromic gut suture material. At least 7 days were imposed between surgery and experimental observation of cannabinoid effects to allow incisions to heal and mice to recover normal body weights. Following surgery, implanted mice were individually housed in Plexiglas® mouse cages (15.24×25.40×12.70 cm) for the duration of all temperature and locomotor activity experiments Implanted transmitters produced activity- and temperature-modulated signals that were transmitted to a receiver (model ER-4000 Receiver, Mini Mitter Co., Inc., Bend, Oreg.) underneath each mouse cage. Receivers were housed in light- and sound-attenuating cubicles (Med Associates model ENV-022MD, St. Albans, Vt.) equipped with exhaust fans, which further masked ambient laboratory noise. On experimental days, mice were weighed, marked, and returned to their individual cages during which at least 1 hr of baseline data were collected. […]. Mice were then placed into a new cage with fresh bedding to stimulate exploratory behavior. Temperature and locomotor activity data were collected at regular 5-min intervals and processed simultaneously by the Vital View data acquisition system (Mini Mitter Co., Inc., Bend, Oreg.) for at least 10 hrs.
For core body temperature experiments, the area under the curve (AUC) was calculated using a trapezoidal rule from 0-500 minutes, and statistical significance (P<0.05) was determined using a one-way ANOVA, followed by Tukey's HSD post-hoc test. For locomotor activity, total locomotor counts were summed from 0-800 minutes. Because locomotor, analgesia and catalepsy data were not normally distributed, Kruskal-Wallis one-way ANOVA on ranks were performed, and all pair-wise comparisons were then made using the Tukey's HSD tests. In vivo statistical calculations were performed using SigmaStat 3 (Systat Software, Inc., San Jose, Calif.).

Series [4] has as its system NIH Swiss mice. The series is described as follows: Locomotor activity by biotelemetry (cannabinoid tetrad). The settings on record: 10 mg/kg, i.p. It is filed as in vivo, mouse.
Series [5] addresses CB1Rs endogenously expressed in Neuro2A cells (Mus musculus (Mouse), UniProt P47746). Nature of the series: Adenylyl cyclase (AC) inhibition via CB1Rs endogenously expressed in Neuro2A cells. It is filed as cell-based.
Series [6] deals with T2, hCB2Rs (Homo sapiens (Human), UniProt P34972). The series is described as follows: Competition receptor binding with [3H]CP-55,940 in CHO-hCB2 cell homogenates. The settings on record: Table 3; read-out: hCB2R Ki. On the procedure: as §2, §4
Series [7] has as its target T2, hCB2Rs. Nature of the series: Inhibition of forskolin-stimulated cAMP production (adenylyl cyclase) in intact CHO-hCB2R cells. In kind it is cell-based. The settings on record: 10 μM, CHO cell transfected with hCB2 receptors; read-out: AC-inhibition at CB2Rs. The method, then: Adenylyl cyclases are a family of membrane-bound enzymes that catalyze the intracellular production of the second messenger cAMP from ATP. Adenylyl cyclase activity is modulated by activated G-proteins: Gs-proteins stimulate activity, while Gi/o-proteins are inhibitory. Thus, agonists of G-protein coupled receptors (GPCRs) coupled to Gi/o-proteins, such as hCB2Rs, decrease cAMP production due to inhibition of adenylyl cyclase activity. In this assay, intact CHO-hCB2R cells are preincubated with [^3H]-adenine and treated with forskolin (10 or 30 μM) to stimulate adenylyl cyclase activity.
A functional assay screen for the inhibition of adenylate cyclase (AC) activity was chosen as the subsequent assay. […] Reaching full-receptor occupancy, which is predicted to produce maximal efficacy, is desirable at 10 μM concentration of all the compounds was used.

Where [8] appears, read: mouse brain homogenates, 0.2 nM [3H]CP-55,940, read-out: [3H]CP binding Ki.

Several values for one entry are separate records, joined by “and”; a condition that tells them apart may be missing. Equal values may be shown once. Read-outs that look alike come from different tables or passages of the source. Marks after values point to notes of the source that are not given here.

For `CCCCn1cc(C(=O)Cc2ccc(OC)cc2)c2cccc(OC)c21`, the melting point lay in the range of 72 to 74 °C.

As to `CCCCn1cc(C(=O)Cc2ccccc2)c2cccc(OC)c21`, the melting point was 65 to 68 °C.

For `CCCCn1cc(C(=O)Cc2cccc3ccccc23)c2cccc(OC)c21`, the melting point was 110 to 113 °C.

`COc1cccc2c(C(=O)c3cccc4ccccc34)cn(CCN3CCOCC3)c12` gave a melting point of 149 to 152 °C.

On to `CCCCn1cc(C(=O)Cc2ccccc2F)c2cccc(OC)c21`, for which the melting point lay in the range of 86 to 88 °C.

The compound `CCCCn1cc(-c2cccc3ccccc23)c2cccc(OC)c21` returned a melting point of 74 to 76 °C.

Turning to `CCCCn1cc(C(=O)c2cccc3ccccc23)c2c(O)cccc21` [Compound M1], the Ki at CB1Rs [1] (setting [8]) was found to be 14.1 ± 3.5 nM. Further, at CB1Rs [2], the “[35S]GTPγS Binding, 1 μM” value was 0.17 ± 0.01 pmol/mg; the “[35S]GTPγS Binding, +O-2050 (1 μM)” value worked out at 0.07 ± 0.01 pmol/mg; the “[35S]GTPγS Binding, 10 μM” value is 0.14±0.01 pmole/mg and 0.14 ± 0.01^a pmole/mg. Moreover, the “[35S]GTPγS Binding Emax” value at CB1Rs [2] (concentration-effect, mouse brain homogenates) is given as 0.14 ± 0.01^b pmole/mg. Also, at CB1Rs [2] (concentration-effect, mouse brain homogenates, read-out: [35S]GTPγS Binding EC50), the EC50 worked out at 113 ± 29.2 nM. In the series with NIH Swiss mice [3] (10 mg/kg), the “minimum core body temperature recorded” value was 30.32±0.66 °C and the “time to maximal core body temperature reduction” value was found to be 58.00 ± 4.64 min. For the same compound, the locomotor activity result with NIH Swiss mice [4] is recorded as “reduction of locomotor activity similar to that observed with administration of JWH-073”.

Consider `CCCCn1cc(C(=O)c2cccc3ccccc23)c2ccc(O)cc21` [Compound M3], for which, on CB1Rs [1] (mouse brain homogenates, 0.2 nM [3H]CP-55,940, read-out: CB1R affinity (Ki)), the Ki was found to be 1280 ± 470 nM. Also, at CB1Rs [2], the “[35S]GTPγS Binding, 1 μM” value is 0.04 ± 0.00 pmol/mg; the “[35S]GTPγS Binding, +O-2050 (1 μM)” value was 0.02 ± 0.01 pmol/mg; the “[35S]GTPγS Binding, 10 μM” value is 0.11±0.02 pmole/mg and 0.11 ± 0.02^a,b pmole/mg.

In the case of `O=C(c1cccc2ccccc12)c1cn(CCCCO)c2ccccc12` [Compound M5], on CB1Rs [1] (setting [8]), the Ki was determined as 224 ± 9 nM. On CB1Rs [2], the “[35S]GTPγS Binding, 1 μM” value amounted to 0.12 ± 0.00 pmol/mg; the “[35S]GTPγS Binding, +O-2050 (1 μM)” value worked out at 0.05 ± 0.01 pmol/mg; the “[35S]GTPγS Binding, 10 μM” value is 0.16±0.02 pmole/mg and 0.16 ± 0.02^a pmole/mg.

As for `O=C(O)CCCn1cc(C(=O)c2cccc3ccccc23)c2ccccc21` [Compound M6, 4-(3-(1-naphthoyl)-1H-indole-1-yl)-1-butanoic acid, reference compound], the “displacement of [3H]CP-55,940 specific binding” value at CB1Rs [1] (concentrations as high as 10 μM) is given as “less than 10%”.

As for `CC1=CC[C@@H]2[C@@H](C1)c1c(O)cc(CC#CCCCNS(C)(=O)=O)cc1OC2(C)C` [Compound O-2050, reference compound], the “antagonism of AC-inhibition produced by the CB1R full agonist JWH-073” value in series [5] (1 μM concentration) is recorded as “antagonized AC-inhibition”.

As to `CCCCCn1cc(C(=O)c2cccc3ccccc23)c2ccccc21` [JWH-018], the EC50 came out at 8 nM on CB1Rs [2] (JWH-018 alone, read-out: EC50 of JWH-018 for G-protein activation, alone); 178 nM on CB1Rs [2] (read-out: EC50 of JWH-018 in the presence of M4, + M4 1 μM); 263 nM at CB1Rs [2] (read-out: EC50 of JWH-018 in the presence of M4, + M4 3 μM); 1560 nM at CB1Rs [2] (read-out: EC50 of JWH-018 in the presence of M4, + M4 10 μM). In addition, in the series on NIH Swiss mice [3] (JWH-018 3 mg/kg, alone), the “maximal decrease in core body temperature to” value is 30.28+/−0.71 °C.

Consider `CCCCn1cc(C(=O)Cc2ccc(F)cc2)c2cccc(OC)c21` [TV-5-129, 1-(1-butyl-7-methoxy-1H-indol-3-yl)-2-(4-fluorophenyl)ethanone], for which the Ki on CB1Rs [1] (Table 3, read-out: mCB1R Ki) is 387 ± 77 nM; on hCB2Rs [6], 281 nM. Moreover, the inhibition at 10 µM at hCB2Rs [7] is 22.1%; in series [5] (N2a, 10 μM, Neuro2A cells) it was -4%.
